Measured values: ChEMBL document CHEMBL1147704, “Design and synthesis of 7H-pyrrolo[2,3-d]pyrimidines as focal adhesion kinase inhibitors. Part 2” (Bioorg Med Chem Lett, 2006)

Biological target: Focal adhesion kinase 1 (Homo sapiens, UniProt Q05397)
Sequence (Q05397 whole entry): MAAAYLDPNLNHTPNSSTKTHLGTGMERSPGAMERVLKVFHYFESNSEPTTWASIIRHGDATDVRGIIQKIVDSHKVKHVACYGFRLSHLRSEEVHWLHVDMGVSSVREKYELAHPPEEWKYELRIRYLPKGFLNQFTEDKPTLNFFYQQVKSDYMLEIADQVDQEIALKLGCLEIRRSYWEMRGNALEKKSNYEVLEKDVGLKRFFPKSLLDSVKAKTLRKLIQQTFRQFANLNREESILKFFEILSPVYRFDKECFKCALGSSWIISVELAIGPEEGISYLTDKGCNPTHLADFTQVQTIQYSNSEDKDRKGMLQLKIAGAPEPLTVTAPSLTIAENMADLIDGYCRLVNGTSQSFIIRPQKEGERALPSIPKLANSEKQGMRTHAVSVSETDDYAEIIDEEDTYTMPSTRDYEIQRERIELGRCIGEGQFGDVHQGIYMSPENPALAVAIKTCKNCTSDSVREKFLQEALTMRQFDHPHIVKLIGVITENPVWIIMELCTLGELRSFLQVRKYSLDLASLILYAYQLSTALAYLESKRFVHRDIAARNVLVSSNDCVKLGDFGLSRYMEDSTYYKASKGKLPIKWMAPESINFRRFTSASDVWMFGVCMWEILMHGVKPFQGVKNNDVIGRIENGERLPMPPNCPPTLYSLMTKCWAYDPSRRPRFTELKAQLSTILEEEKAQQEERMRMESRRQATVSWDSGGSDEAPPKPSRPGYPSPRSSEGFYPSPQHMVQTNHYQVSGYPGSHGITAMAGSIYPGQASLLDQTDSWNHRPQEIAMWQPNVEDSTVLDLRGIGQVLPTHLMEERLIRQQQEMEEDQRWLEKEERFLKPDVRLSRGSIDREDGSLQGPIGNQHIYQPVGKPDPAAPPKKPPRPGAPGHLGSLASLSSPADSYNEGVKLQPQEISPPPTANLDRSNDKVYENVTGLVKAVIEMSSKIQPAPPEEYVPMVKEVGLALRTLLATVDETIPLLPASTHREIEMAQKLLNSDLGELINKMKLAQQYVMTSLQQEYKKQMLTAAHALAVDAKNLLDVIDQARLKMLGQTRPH

SMILES | IC50 [nM]
COc1cc(Nc2ncc3ccn(-c4ccccn4)c3n2)cc(OC)c1OC | 212
COc1cc(Nc2ncc3ccn(-c4cccc(CCC(=O)O)n4)c3n2)cc(OC)c1OC | 4
